Here are results for five compounds from US20250248979A1, “NOVEL GPX4 INHIBITORS AND USES THEREOF” (THE TRUSTEES OF COLUMBIA UNIVERSITY IN THE CITY OF NEW YORK, priority 2022, published 2025).

Series [1] addresses T1, GPX4 (Homo sapiens, UniProt P36969).
T1 sequence (P36969 1-170 isoform P36969-2): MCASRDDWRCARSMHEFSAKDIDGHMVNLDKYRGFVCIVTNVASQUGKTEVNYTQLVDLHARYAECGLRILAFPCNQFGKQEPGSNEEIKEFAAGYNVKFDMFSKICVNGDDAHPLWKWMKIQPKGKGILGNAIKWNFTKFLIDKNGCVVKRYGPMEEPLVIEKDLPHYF
The series is described as follows: Western blot assay of GPX4 protein degradation. Type of series: cell-based. On the procedure:
HT-1080 cells were seeded at 250,000 cells per well in a 6-well plate and incubated 37° C. with 5% CO2 overnight. The next day, cells were treated with vehicle alone or the compound of interest with 10 μM Fer-1 for 10 hours. Compounds were dissolved in DMSO. Cells were harvested with trypsin, washed with cold PBS, and lysed in RIPA buffer containing complete Protease Inhibitor Cocktail mini tablets (Roche) on ice for 30 minutes. Samples were then centrifuged at 14,000×g for 15 minutes at 4° C. Supernatants were collected and protein concentrations were determined using the BCA Protein Assay Kit (Pierce). Concentrations were normalized across samples and mixed with 6×SDS-PAGE Sample Loading Buffer (G Biosciences). Protein samples were then loaded on a NuPAGE Novex 4-12% Bis-Tris protein gel and run in MES buffer (Invitrogen) at 100V for 10 minutes then 200V for an additional 30 minutes. Proteins were transferred to a PVDF membrane (Invitrogen) using the iBlot 2 Gel Transfer Device. The membrane was washed with PBS, then blocked using Intercept Blocking Buffer (LICOR) for one hour. The membrane was then incubated with the primary antibodies in a 1:1 solution of blocking buffer and PBST (PBS+0.1% Tween 20) overnight at 4° C. […] The blot was imaged using a LI-COR Odyssey CLx IR scanner and results were quantified in ImageJ and GraphPad Prism 9.

A further series has as its system PC9 cells. Nature of the series: cells. Conditions: Homo sapiens, PC-9, 48 h, read-out: % Viability PC9.
The target of the next series is T2, GPX4^U46C (Homo sapiens, UniProt P36969, U73C).
T2 construct: made in house; host or cells: E. coli BL21-Gold (DE3)
T2 sequence (P36969 1-170 isoform P36969-2 U46C): T1 sequence (P36969 1-170 isoform P36969-2) with U46C
The series is described as follows: Intact protein MALDI MS analysis. Format: binding. As to conditions: 150 μM.

The next series concerns the target T3, GFP-GPX4^K125R_K127R (Homo sapiens, UniProt P36969, K152R/K154R).
T3 construct: expressed in transfected cells
Nature of the series: Degradation of GFP-GPX4^K125R_K127R in HT-1080 cells. Format: cell-based.

The next series has as its target T4, GFP-GPX4^WT (Homo sapiens, UniProt P36969).
T4 construct: expressed in transfected cells; host or cells: HT-1080 overexpressing GFP-GPX4^WT
The series is described as follows: Degradation of GPX4 and GFP-GPX4^WT with MG-132. Format: cell-based. As to conditions: 1.0 μM ± MG-132 (10 μM), 18 hours.

The target in another series is T5, GPX1 (Homo sapiens, UniProt P07203).
T5 sequence (P07203 1-203): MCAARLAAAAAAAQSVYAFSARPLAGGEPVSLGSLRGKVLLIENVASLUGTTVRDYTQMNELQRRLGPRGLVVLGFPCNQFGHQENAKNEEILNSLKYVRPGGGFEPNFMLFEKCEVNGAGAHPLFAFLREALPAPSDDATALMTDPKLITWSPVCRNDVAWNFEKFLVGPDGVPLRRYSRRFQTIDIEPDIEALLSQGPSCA
Nature of the series: Degradation of endogenous GPX1 in HT-1080 cells. Type of series: cell-based. Details: endogenous in cells.

Series [2] deals with T1, GPX4. Nature of the series: Cellular thermal shift assay (CETSA), GPX4. Format: cell-based. As to conditions: 10 μM compound for 1 h. The arrangement: To prepare the cell lysate containing native GPX4, A-673 cells were cultured; endogenous in cells; host or cells: A-673 cell lysate.

Substitutions are numbered along the chain they refer to. Read-outs that look alike come from different tables or passages of the source. Bounds are passed on as bounds.

T3 sequence (P36969 28-197 K152R/K154R): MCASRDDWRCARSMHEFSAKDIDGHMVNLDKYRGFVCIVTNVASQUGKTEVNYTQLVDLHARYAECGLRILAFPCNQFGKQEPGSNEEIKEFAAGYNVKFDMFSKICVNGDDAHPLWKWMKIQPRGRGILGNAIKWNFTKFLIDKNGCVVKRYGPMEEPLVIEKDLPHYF

As to `COc1cccc2[nH]c(C(=O)n3ccnc3)cc12` [LOC1886, reference compound], the “GPX4 protein degradation, result in words” value at GPX4 [1] (HT-1080 cells) was “inhibits and degrades GPX4”.

Take `Cn1nc(C(=O)NC(C)(C)COC(=O)CCl)c2ccc(Br)cc21` [QW-314]: at GPX4 [1], the “GPX4 protein degradation, result in words” value is reported as “induces GPX4 protein degradation in HT-1080 cells”. Moreover, in the series on PC9 cells, the viability at 10 µM worked out at 62%.

On to `COc1ccc(-c2ccc3c(C(=O)NC(C)(C)COC(=O)CCl)nn(C)c3c2)cc1Cl` [QW-446], for which the “Plasma Stability t1/2 (min) human” value worked out at 7.5 min.

As for `CC(C)(COC(=O)CCl)NC(=O)c1nn(Cc2cc(Cl)cc(Cl)c2)c2cc(-c3ccc(N4CCOCC4)c(Cl)c3)ccc12` [QW-852], the “covalent binding to GPX4^U46C (mass shift)” value at GPX4^U46C is listed as “lower potency than RSL3 to covalently bind to GPX4^U46C”. At GFP-GPX4^K125R_K127R, the “degradation of GFP-GPX4^K125R_K127R” value is on record as “but not by QW-852”. Besides, the “GPX4 degradation with MG-132” value at GFP-GPX4^WT was “effectively blocked by MG-132”. The “selectivity in cancer cells compared to PBMCs” value with PBMCs was “Over 10 fold”. For the same compound, the GPX1 degradation result at GPX1 is given as “less effective at degrading GPX1”. Besides, the “thermal stability of GPX4” value on GPX4 [2] is “stabilizing the protein”.

`COC(=O)c1ccc([C@@H]2c3[nH]c4ccccc4c3C[C@@H](C(=O)OC)N2C(=O)CCl)cc1` [RSL3, reference compound]: the “Plasma Stability t1/2 (min) human” value is above 1000 min.
